Laboratory results: patent US5866392A, “Cellobiose oxidase, and enzymatic agent and a process for treating paper pulp” (priority 1992, dated 1999)
Like-named read-outs stand apart in the source and are kept apart here.

Assays:
EG A (cellulase) = test: Coupled cellobiose oxidase/DCPIP assay for cellulases; type: biochemical; settings: reduced cellodextrin substrate
Excerpt: (§1) The ability of the cellobiose oxidase to oxidize cellodextrins by means of an electron acceptor was utilized in an assay for cellulases. […] With this assay the kinetic constants for reduced cellodextrins of 5 different cellulases have been determined (table 2). […] The enzymes show very different substrate specificity, some of them requiring quite long substrates making it impossible to use the umbelliferyl cellobiosides and lactosides available for steady state kinetic.

EG C (cellulase) = test: as above; type: biochemical; settings: reduced cellodextrin substrate
Excerpt: as §1

[1] = test system: Endo (cellulase, first line of the table); test: as above; type: biochemical; settings: reduced cellodextrin substrate
Excerpt: as §1

Endo B (cellulase) = test: as above; type: biochemical; settings: reduced cellodextrin substrate
Excerpt: as §1

[2] = target: T1, Humicola insolens cellobiose oxidase (CBO, 92 kDa, pI 4.0) (Mycothermus thermophilus, UniProt Q9P8H5); settings: for kcat (electron donor): sugar + 90 μM DCPIP, mol oxidized cellobiose/s/mol enzyme; for Km: read-out: Km (electron donor), pH 7.5
T1 sequence (Q9P8H5 24-785): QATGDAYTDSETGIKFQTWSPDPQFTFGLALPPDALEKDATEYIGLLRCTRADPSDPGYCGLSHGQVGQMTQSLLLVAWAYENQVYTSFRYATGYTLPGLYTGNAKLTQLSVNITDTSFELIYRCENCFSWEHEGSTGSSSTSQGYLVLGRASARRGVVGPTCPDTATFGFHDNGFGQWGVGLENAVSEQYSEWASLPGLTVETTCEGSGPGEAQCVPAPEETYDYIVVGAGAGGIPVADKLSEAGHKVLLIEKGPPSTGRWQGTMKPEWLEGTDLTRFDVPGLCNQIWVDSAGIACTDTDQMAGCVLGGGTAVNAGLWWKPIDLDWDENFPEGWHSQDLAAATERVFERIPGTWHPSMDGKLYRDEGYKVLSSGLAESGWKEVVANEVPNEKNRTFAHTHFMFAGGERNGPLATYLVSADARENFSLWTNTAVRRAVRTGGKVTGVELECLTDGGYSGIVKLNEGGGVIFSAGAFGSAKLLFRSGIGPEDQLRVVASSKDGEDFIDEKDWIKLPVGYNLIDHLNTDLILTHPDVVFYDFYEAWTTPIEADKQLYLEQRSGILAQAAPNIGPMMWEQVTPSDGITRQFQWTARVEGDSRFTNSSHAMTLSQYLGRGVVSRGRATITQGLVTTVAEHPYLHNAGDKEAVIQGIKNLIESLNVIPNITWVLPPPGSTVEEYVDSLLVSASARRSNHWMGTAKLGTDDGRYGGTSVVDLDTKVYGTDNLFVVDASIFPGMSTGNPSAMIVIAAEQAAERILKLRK
Method: The measurements were performed in 0.1M sodium phosphate buffer at pH 7.5 at 40° C. 450 μl of a mixture of 100 μM of 2,6-Dichlorophenol-indophenol (DCPIP, Merck), 250 μM of cellobiose (Sigma) were mixed with 50 μl enzyme. Units of activity equals μmol cellobiose oxidized (DCPIP reduced) per min.
All measurements were performed in 0.1M sodium phosphate buffer, pH 7.5, at 40° C. […] The reactions were monitored for 400 s as changes in absorbance at the appropirate wavelength (see above). […] The catalytic constants (kcat) were expressed as mol of oxidized cellobiose/s/mol of enzyme. […] The kinetic constants were determined using Lineweaver-Burke plots and were the result of dual determinations.

CBH II (cellulase) = target: T2, CBH II (cellulase) (Humicola insolens, UniProt Q9C1S9); test: Coupled cellobiose oxidase/DCPIP assay for cellulases; type: biochemical; settings: for Ki: coupled CBO/DCPIP assay, read-out: KL (inhibition constant)
T2 sequence (Q9C1S9 17-476): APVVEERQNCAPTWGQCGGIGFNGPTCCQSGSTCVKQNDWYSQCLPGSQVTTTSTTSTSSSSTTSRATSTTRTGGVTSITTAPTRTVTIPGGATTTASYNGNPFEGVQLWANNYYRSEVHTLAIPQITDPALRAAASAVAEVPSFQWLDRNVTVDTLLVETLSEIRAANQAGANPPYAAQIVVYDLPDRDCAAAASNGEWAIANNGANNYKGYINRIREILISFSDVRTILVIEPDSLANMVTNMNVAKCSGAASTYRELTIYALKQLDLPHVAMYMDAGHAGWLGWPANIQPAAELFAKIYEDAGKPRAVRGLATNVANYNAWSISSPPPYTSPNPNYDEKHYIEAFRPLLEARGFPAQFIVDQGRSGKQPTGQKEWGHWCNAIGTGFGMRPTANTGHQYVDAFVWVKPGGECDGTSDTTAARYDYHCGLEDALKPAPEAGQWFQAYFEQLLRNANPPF
Excerpt: as §1, with “kinetic. […] The inhibition constants were determined for two cellulases using the developed assay.” for “kinetic.”

Endo A (cellulase) = test: as above; type: biochemical; settings: coupled CBO/DCPIP assay
Excerpt: The ability of the cellobiose oxidase to oxidize cellodextrins by means of an electron acceptor was utilized in an assay for cellulases. By using a substrate without a reducing end, such as a reduced cellodextrin, the reducing ends formed by the hydrolysis by the cellulase will be oxidized by the CBO. Simultaneously the coloured electron acceptor, dichlorophenolindophenol (DCPIP), is reduced by cellobiose oxidase to a colourless compound making it possible to follow the reaction spectrophotometrically at 600 nm DCPIP was chosen as electron acceptor because of its high extinction coefficient.
The inhibitors methyl 4-thiocellotrioside, methyl 4-thiocellotetraoside and methyl 4-thiocellopentaoside were synthesized at the laboratory in Grenoble^5. The inhibition constants were determined for two cellulases using the developed assay.

[3] = 0.1M sodium phosphate buffer, pH 7.5, 40° C.
[4] = read-out: KL (inhibition constant)
[5] = read-out: KLS (inhibition constant)

OC[C@@H](O)[C@@H](O[C@@H]1O[C@H](CO)[C@@H](O[C@@H]2O[C@H](CO)[C@@H](O[C@@H]3O[C@H](CO)[C@@H](O[C@@H]4O[C@H](CO)[C@@H](O)[C@H](O)[C@H]4O)[C@H](O)[C@H]3O)[C@H](O)[C@H]2O)[C@H](O)[C@H]1O)[C@H](O)[C@@H](O)CO [Red. DP5]
Km (EG A (cellulase)): 460 µM
kcat (EG A (cellulase)): 0.00 s⁻¹
Km (EG C (cellulase)): 68 µM
kcat (EG C (cellulase)): 13 s⁻¹
Km [1]: 14 µM
kcat [1]: 40 s⁻¹
Km (Endo B (cellulase)): 150 µM
kcat (Endo B (cellulase)): 0.86 s⁻¹

OC[C@@H](O)[C@@H](O[C@@H]1O[C@H](CO)[C@@H](O[C@@H]2O[C@H](CO)[C@@H](O[C@@H]3O[C@H](CO)[C@@H](O)[C@H](O)[C@H]3O)[C@H](O)[C@H]2O)[C@H](O)[C@H]1O)[C@H](O)[C@@H](O)CO [Red. DP4]
kcat (EG A (cellulase)): 0 s⁻¹
Km (EG C (cellulase)): 1600 µM
kcat (EG C (cellulase)): 0.43 s⁻¹
Km [1]: 26 µM
kcat [1]: 29 s⁻¹
Km (Endo B (cellulase)): 1500 µM
kcat (Endo B (cellulase)): 0.84 s⁻¹

OC[C@H]1OC(O)[C@H](O)[C@@H](O)[C@@H]1O (stereo partly drawn) [Glucose]
kcat (electron donor) [2, 3]: 0 s⁻¹

CC(=O)N[C@H]1C(O)O[C@H](CO)[C@@H](O[C@@H]2O[C@H](CO)[C@H](O)[C@H](O)[C@H]2O)[C@@H]1O (stereo partly drawn) [N-Acetyllactosamine]
kcat (electron donor) [2, 3]: 0 s⁻¹

methyl 4-thiocellotetraoside [S-DP4]
Ki (CBH II (cellulase)): 270 µM
Ki (Endo A (cellulase); [4]): 75 µM
Ki (Endo A (cellulase); [5]): 1000 µM

OC[C@H]1O[C@@H](O[C@H]2[C@H](O)[C@@H](O)[C@H](O[C@H]3[C@H](O)[C@@H](O)C(O)O[C@@H]3CO)O[C@@H]2CO)[C@H](O)[C@@H](O)[C@@H]1O (stereo partly drawn) [Cellotriose]
kcat (electron donor) [2, 3]: 8.5 s⁻¹

OC[C@H]1O[C@@H](O[C@H]2[C@H](O)[C@@H](O)[C@H](O[C@H]3[C@H](O)[C@@H](O)[C@H](O[C@H]4[C@H](O)[C@@H](O)[C@H](O[C@H]5[C@H](O)[C@@H](O)C(O)O[C@@H]5CO)O[C@@H]4CO)O[C@@H]3CO)O[C@@H]2CO)[C@H](O)[C@@H](O)[C@@H]1O (stereo partly drawn) [Cellopentaose]
Km [2]: 17 µM
kcat (electron donor) [2, 3]: 8.3 s⁻¹

OC[C@@H](O)[C@@H](O[C@@H]1O[C@H](CO)[C@@H](O[C@@H]2O[C@H](CO)[C@@H](O)[C@H](O)[C@H]2O)[C@H](O)[C@H]1O)[C@H](O)[C@@H](O)CO [Red. DP3]
kcat (EG A (cellulase)): 0 s⁻¹
kcat (EG C (cellulase)): 0 s⁻¹
Km [1]: 500 µM
kcat [1]: 0.24 s⁻¹
kcat (Endo B (cellulase)): 0 s⁻¹
kcat (CBH II (cellulase); reduced cellodextrin substrate): 0 s⁻¹

methyl 4-thiocellopentaoside [S-DP5]
Ki (CBH II (cellulase)): 15 µM
Ki (Endo A (cellulase); [4]): 35 µM

CC(=O)N[C@H]1[C@H](O[C@H]2[C@H](O)[C@@H](NC(C)=O)C(O)O[C@@H]2CO)O[C@H](CO)[C@@H](O)[C@@H]1O (stereo partly drawn) [N,N-Diacetylchitobiose]
kcat (electron donor) [2, 3]: 0 s⁻¹

OC1OC[C@@H](O[C@@H]2OC[C@@H](O)[C@H](O)[C@H]2O)[C@H](O)[C@H]1O (stereo partly drawn) [Xylobiose]
Km [2]: 7100 µM
kcat (electron donor) [2, 3]: 2.15 s⁻¹

OC[C@H]1O[C@@H](O[C@H]2[C@H](O)[C@@H](O)[C@H](O[C@H]3[C@H](O)[C@@H](O)[C@H](O[C@H]4[C@H](O)[C@@H](O)C(O)O[C@@H]4CO)O[C@@H]3CO)O[C@@H]2CO)[C@H](O)[C@@H](O)[C@@H]1O (stereo partly drawn) [Cellotetraose]
kcat (electron donor) [2, 3]: 8.5 s⁻¹

CC(C)(C)C1=CC(=O)C(=O)C(C(C)(C)C)=C1 [Benzoquinone, 3,5-di-tert-butyl-1,2-benzoquinone]
kcat (electron acceptor) ([2]; electron acceptor + 225 μM cellobiose, 0.1M sodium phosphate buffer, pH 7.5, 40° C.): 15 s⁻¹

OC[C@@H](O)[C@@H](O[C@@H]1O[C@H](CO)[C@@H](O[C@@H]2O[C@H](CO)[C@@H](O[C@@H]3O[C@H](CO)[C@@H](O[C@@H]4O[C@H](CO)[C@@H](O[C@@H]5O[C@H](CO)[C@@H](O)[C@H](O)[C@H]5O)[C@H](O)[C@H]4O)[C@H](O)[C@H]3O)[C@H](O)[C@H]2O)[C@H](O)[C@H]1O)[C@H](O)[C@@H](O)CO [Red. DP6]
Km (EG A (cellulase)): 54 µM
kcat (EG A (cellulase)): 0.15 s⁻¹
Km (EG C (cellulase)): 71 µM
kcat (EG C (cellulase)): 11 s⁻¹
Km (Endo B (cellulase)): 52 µM
kcat (Endo B (cellulase)): 14 s⁻¹

methyl 4-thiocellotrioside [S-DP3]
Ki (CBH II (cellulase)): 1400 µM
Ki (Endo A (cellulase); [4]): 300 µM
Ki (Endo A (cellulase); [5]): 2000 µM
